biological target: T1, recombinant human ULK1 protein (1-649) (Homo sapiens, UniProt O75385); assay: ULK1 inhibition assay (ADP Glo); type: biochemical; details: Table 1; 25 uM ATP, MBP substrate, one hour
T1 construct: recombinant human ULK1 protein (1-649, SignalChem #U01-11G); purchased SignalChem U01-11G
T1 sequence (O75385 1-649): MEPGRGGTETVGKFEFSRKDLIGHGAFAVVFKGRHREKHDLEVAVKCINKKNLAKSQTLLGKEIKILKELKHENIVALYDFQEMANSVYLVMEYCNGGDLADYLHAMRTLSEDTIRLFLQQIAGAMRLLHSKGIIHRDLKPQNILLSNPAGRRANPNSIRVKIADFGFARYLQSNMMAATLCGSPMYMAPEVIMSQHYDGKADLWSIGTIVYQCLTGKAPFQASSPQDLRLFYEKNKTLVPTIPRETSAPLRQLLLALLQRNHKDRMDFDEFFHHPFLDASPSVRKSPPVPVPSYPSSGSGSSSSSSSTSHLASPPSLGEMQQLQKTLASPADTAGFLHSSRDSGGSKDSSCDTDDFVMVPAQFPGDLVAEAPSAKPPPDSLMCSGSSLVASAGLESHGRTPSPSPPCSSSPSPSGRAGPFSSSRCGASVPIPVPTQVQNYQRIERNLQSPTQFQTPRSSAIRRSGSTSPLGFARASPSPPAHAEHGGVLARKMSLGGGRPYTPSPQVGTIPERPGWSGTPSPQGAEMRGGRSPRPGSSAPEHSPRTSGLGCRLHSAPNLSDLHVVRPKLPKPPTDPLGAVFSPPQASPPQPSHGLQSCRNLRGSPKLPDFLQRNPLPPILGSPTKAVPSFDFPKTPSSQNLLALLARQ
In short: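 Recombinant ULK1 (2 ug/mL) phosphorylated myelin basic protein (80 ug/mL) at 25 uM ATP; ADP formed was detected by ADP-Glo after 1 h. Compounds ran in triplicate, 16-dose 3-fold serial dilution from 30 uM, to give IC50.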

Compound | IC50 [nM]
CNC(=O)c1ccccc1Nc1nc(Nc2ccc3c(c2)CNCC3)ncc1Br [Compound A147, 2-[5-Bromo-2-(1,2,3,4-tetrahydro-isoquinolin-7-ylamino)-pyrimidin-4-ylamino]-N-methyl-benzamide] | > 10
NC(=O)CN1CCc2cc(Nc3ncc(C(F)(F)F)c(NC4CC4)n3)ccc2C1 [Compound A39] | > 10
N#CCN1CCc2cc(Nc3ncc(C(F)(F)F)c(NC4CC4)n3)ccc2C1 [Compound A45] | < 1
FC(F)(F)c1cnc(Nc2ccc3c(c2)CN(Cc2ccncn2)CC3)nc1NC1CC1 [Compound A109] | < 1
CN1CCc2cc(Nc3ncc(Br)c(NC4CC4)n3)ccc2C1 [Compound A65] | < 1
FC(F)(F)c1cnc(Nc2ccc3c(c2)CN(Cc2ccoc2)CC3)nc1NC1CC1 [Compound A101] | < 1
CC(O)CN1CCc2cc(Nc3ncc(C(F)(F)F)c(NC4CC4)n3)ccc2C1 (stereo not shown) [Compound A70] | < 1
CN(C)C(=O)CN1CCc2cc(Nc3ncc(C(F)(F)F)c(NC4CC4)n3)ccc2C1 [Compound A74] | < 1
CC(=O)CCN1CCc2cc(Nc3ncc(C(F)(F)F)c(NC4CC4)n3)ccc2C1 [Compound A56] | < 1
CNC(=O)c1ccccc1Nc1nc(Nc2ccc3c(c2)CCN(C(=O)CCC(=O)O)C3)ncc1Br [Compound A134, 4-{6-[5-Bromo-4-(2-methylcarbamoyl-phenylamino)-pyrimidin-2-ylamino]-3,4-dihydro-1H-isoquinolin-2-yl}-4-oxo-butyric acid] | > 10
COCCN1CCc2ccc(Nc3ncc(C(F)(F)F)c(NC4CC4)n3)cc2C1 [Compound A86] | < 1
FC(F)(F)c1cnc(Nc2ccc3c(c2)CN(CCN2CCOCC2)CC3)nc1NC1CC1 [Compound A97] | 1 to 10

same assay, conditions: Table 2

Compound | IC50 [nM]
COC(=O)c1ccccc1Oc1nc(Nc2cc(F)c(OC)c(F)c2)ncc1Br [Compound B34] | > 1000
COC(=O)c1ccccc1Oc1nc(Nc2ccc(C(N)=O)cc2)ncc1Br [Compound B41] | > 1000
COC(=O)c1ccccc1Oc1nc(Nc2ccc3occc3c2)ncc1Br [Compound B35] | > 1000
COC(=O)c1ccccc1Oc1nc(Nc2ccc(N3CCN(C)CC3)cc2)ncc1Br [Compound B11] | < 100
COc1cc(Nc2ncc(Br)c(Oc3ccccc3C(=O)N(C)CC#N)n2)cc(OC)c1OC [Compound B45] | 100 to 1000
COC(=O)c1ccccc1Oc1nc(Nc2cc(C)c(C)c(C)c2)ncc1Br [Compound B16] | > 1000
COC(=O)c1ccccc1Oc1nc(Nc2ccc3c(c2)CCO3)ncc1Br [Compound B30] | > 1000
COC(=O)c1ccccc1Oc1nc(Nc2cccc(OC)c2)ncc1Br [Compound B23] | > 1000
COC(=O)c1ccccc1Oc1nc(Nc2ccc(N3CCOCC3)cc2)ncc1Br [Compound B12] | > 1000

same assay, conditions: Table 3

Compound | IC50 [nM]
COc1cc(Nc2ncc(Br)c(Nc3ccccc3CN(C)CC#N)n2)cc(OC)c1OC [Compound C26] | 5 to 100
CNC(=O)c1ccccc1Nc1nc(Nc2ccc(OC)c(OC)c2)ncc1Br [Compound E16, 2-((5-Bromo-2-((3,4-dimethoxyphenyl)amino)pyrimidin-4-yl)amino)-N-methylbenzamide] | 5 to 100
O=C(Nc1ccc(Nc2ncc(Br)c(Nc3ccccc3CO)n2)cc1)C1CC1 [Compound C12] | < 5
COc1cc(Nc2ncc(Br)c(Nc3ccccc3CN3CCN(C)CC3)n2)cc(OC)c1OC [Compound C20] | > 100
CC(=O)Nc1ccc(Nc2ncc(Br)c(Nc3ccccc3CO)n2)cc1 [Compound C7] | 5 to 100
COc1cc(Nc2ncc(Br)c(Nc3ccccc3C(=O)NCC(F)(F)F)n2)cc(OC)c1OC [Compound E23, 2-((5-Bromo-2-((3,4,5-trimethoxyphenyl)amino)pyrimidin-4-yl)amino)-N-(2,2,2-trifluoroethyl)benzamide] | 5 to 100
CNC(=O)c1ccccc1Nc1nc(Nc2ccc(OC(F)F)cc2)ncc1Br [Compound E18, 2-((5-Bromo-2-((4-(difluoromethoxy)phenyl)amino)pyrimidin-4-yl)amino)-N-methylbenzamide] | > 100
